Assays:
Format in all cases: in vivo
Setaria faberi (SETFA) [1] = assay: Pre-emergence Test (glasshouse, percentage damage to the plant); conditions: 1000 g/ha unless otherwise stated, five-point scale
[2] = system: Abutilon theophrasti (ABUTH); assay: as above; conditions: 1000 g/ha unless otherwise stated, five-point scale
Zea mays (ZEAMX) [3] = assay: as above; conditions: 1000 g/ha unless otherwise stated, five-point scale
[4] = system: Abutilon theophrasti (ABUTH); assay: Post-emergence Test (glasshouse, percentage damage to the plant); conditions: post-emergence spray, 1000 g/ha unless otherwise stated, evaluated after 13 days
Method in brief: (§1)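 Compound formulated in 50:50 acetone/water with 0.5% Tween 20 was diluted to an aqueous spray and applied at 1000 g/ha, unless otherwise stated, onto sown pots. Evaluation after 13 days gave percentage damage, banded into a 1–5 score.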

Zea mays (ZEAMX) [5] = assay: as above; conditions: post-emergence spray, 1000 g/ha unless otherwise stated, evaluated after 13 days
Method in brief: (§2)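 Spray treatment of sown glasshouse pots at 1000 g/ha (default rate), vehicle acetone/water 50:50 plus 0.5% Tween 20. Read-out: percentage damage after 13 days, converted to a score where 5 denotes 81-100% and 1 denotes 0-20%.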

Setaria faberi (SETFA) [6] = assay: as above; conditions: post-emergence spray, 1000 g/ha unless otherwise stated, evaluated after 13 days
Method in brief: as §2

[7] = system: Echinochloa crus-galli (ECHCG); assay: as above; conditions: post-emergence spray, 1000 g/ha unless otherwise stated, evaluated after 13 days
Method in brief: as §1

[8] = system: Ipomoea hederacea (IPOHE); assay: as above; conditions: post-emergence spray, 1000 g/ha unless otherwise stated, evaluated after 13 days
Method in brief: as §2

[9] = system: Amaranthus retoflexus (AMARE); assay: as above; conditions: post-emergence spray, 1000 g/ha unless otherwise stated, evaluated after 13 days
Method in brief: as §1

[10] = system: Echinochloa crus-galli (ECHCG); assay: Pre-emergence Test (glasshouse, percentage damage to the plant); conditions: 1000 g/ha unless otherwise stated, five-point scale
[11] = system: Ipomoea hederacea (IPOHE); assay: as above; conditions: 1000 g/ha unless otherwise stated, five-point scale
[12] = system: Amaranthus retoflexus (AMARE); assay: as above; conditions: 1000 g/ha unless otherwise stated, five-point scale

CCOc1cc(-c2c(C)n(CC)c(-c3ccc(Cl)c(Cl)c3)c(C(=O)O)c2=O)ccc1C(F)(F)F [Compound 65, 2-(3,4-dichlorophenyl)-5-[3-ethoxy-4-(trifluoromethyl)phenyl]-1-ethyl-6-methyl-4-oxo-pyridine-3-carboxylic acid]
1 (1=0-20%): percentage damage to the plant, SETFA (Setaria faberi (SETFA) [1]) | percentage damage to the plant, ABUTH [2] | percentage damage to the plant, ZEAMX (Zea mays (ZEAMX) [3]) | Post-emergence Test ABUTH, percentage damage to the plant (five-point scale) [4] | Post-emergence Test ZEAMX, percentage damage to the plant (five-point scale) (Zea mays (ZEAMX) [5]) | Post-emergence Test SETFA, percentage damage to the plant (five-point scale) (Setaria faberi (SETFA) [6]) | Post-emergence Test ECHCG, percentage damage to the plant (five-point scale) [7] | Post-emergence Test IPOHE, percentage damage to the plant (five-point scale) [8] | Post-emergence Test AMARE, percentage damage to the plant (five-point scale) [9] | percentage damage to the plant, ECHCG [10] | percentage damage to the plant, IPOHE [11] | percentage damage to the plant, AMARE [12]

CCn1c(C)c(-c2cc(Cl)cc(Cl)c2)c(=O)c(C(=O)O)c1-c1ccc(Cl)c(Cl)c1 [Compound 56, 2-(3,4-dichlorophenyl)-5-(3,5-dichlorophenyl)-1-ethyl-6-methyl-4-oxo-pyridine-3-carboxylic acid]
1 (1=0-20%): percentage damage to the plant, SETFA (Setaria faberi (SETFA) [1]) | percentage damage to the plant, ABUTH [2] | percentage damage to the plant, ZEAMX (Zea mays (ZEAMX) [3]) | Post-emergence Test ABUTH, percentage damage to the plant (five-point scale) [4] | Post-emergence Test ZEAMX, percentage damage to the plant (five-point scale) (Zea mays (ZEAMX) [5]) | Post-emergence Test SETFA, percentage damage to the plant (five-point scale) (Setaria faberi (SETFA) [6]) | Post-emergence Test ECHCG, percentage damage to the plant (five-point scale) [7] | Post-emergence Test IPOHE, percentage damage to the plant (five-point scale) [8] | Post-emergence Test AMARE, percentage damage to the plant (five-point scale) [9] | percentage damage to the plant, ECHCG [10] | percentage damage to the plant, IPOHE [11] | percentage damage to the plant, AMARE [12]

CCn1c(C)c(-c2ccccc2)c(=O)c(C(=O)O)c1-c1ccc(F)cc1F [Compound 135, 2-(2,4-difluorophenyl)-1-ethyl-6-methyl-4-oxo-5-phenyl-pyridine-3-carboxylic acid]
2 (2=21-40%): Post-emergence Test AMARE, percentage damage to the plant (five-point scale) [9] | percentage damage to the plant, ECHCG [10]
0: percentage damage to the plant, ZEAMX (Zea mays (ZEAMX) [3]) | Post-emergence Test ZEAMX, percentage damage to the plant (five-point scale) (Zea mays (ZEAMX) [5]) | Post-emergence Test SETFA, percentage damage to the plant (five-point scale) (Setaria faberi (SETFA) [6]) | Post-emergence Test ECHCG, percentage damage to the plant (five-point scale) [7]
3 (3=41-60%): percentage damage to the plant, ABUTH [2] | percentage damage to the plant, IPOHE [11]
5 (5=81-100%): percentage damage to the plant, SETFA (Setaria faberi (SETFA) [1])
1 (1=0-20%): Post-emergence Test ABUTH, percentage damage to the plant (five-point scale) [4] | Post-emergence Test IPOHE, percentage damage to the plant (five-point scale) [8] | percentage damage to the plant, AMARE [12]

CCn1c(C)c(-c2cc(C)cs2)c(=O)c(C(=O)O)c1-c1ccc(Cl)cc1 [Compound 167, 2-(4-chlorophenyl)-1-ethyl-6-methyl-5-(4-methyl-2-thienyl)-4-oxo-pyridine-3-carboxylic acid]
1 (1=0-20%): Post-emergence Test ZEAMX, percentage damage to the plant (five-point scale) (Zea mays (ZEAMX) [5]) | Post-emergence Test ECHCG, percentage damage to the plant (five-point scale) [7] | percentage damage to the plant, IPOHE [11] | percentage damage to the plant, AMARE [12]
3 (3=41-60%): percentage damage to the plant, ABUTH [2] | percentage damage to the plant, ZEAMX (Zea mays (ZEAMX) [3]) | Post-emergence Test IPOHE, percentage damage to the plant (five-point scale) [8]
4 (4=61-80%): Post-emergence Test ABUTH, percentage damage to the plant (five-point scale) [4]
2 (2=21-40%): percentage damage to the plant, SETFA (Setaria faberi (SETFA) [1]) | Post-emergence Test SETFA, percentage damage to the plant (five-point scale) (Setaria faberi (SETFA) [6])
0: Post-emergence Test AMARE, percentage damage to the plant (five-point scale) [9] | percentage damage to the plant, ECHCG [10]

CCn1c(C)c(-c2ccc(S(=O)(=O)CC)cc2)c(=O)c(C(=O)O)c1-c1ccc(Cl)c(Cl)c1 [Compound 66, 2-(3,4-dichlorophenyl)-1-ethyl-5-(4-ethylsulfonylphenyl)-6-methyl-4-oxo-pyridine-3-carboxylic acid]
2 (2=21-40%): Post-emergence Test ECHCG, percentage damage to the plant (five-point scale) [7] | Post-emergence Test IPOHE, percentage damage to the plant (five-point scale) [8] | percentage damage to the plant, ECHCG [10]
1 (1=0-20%): percentage damage to the plant, ABUTH [2] | percentage damage to the plant, ZEAMX (Zea mays (ZEAMX) [3]) | Post-emergence Test ZEAMX, percentage damage to the plant (five-point scale) (Zea mays (ZEAMX) [5]) | Post-emergence Test AMARE, percentage damage to the plant (five-point scale) [9] | percentage damage to the plant, IPOHE [11] | percentage damage to the plant, AMARE [12]
3 (3=41-60%): Post-emergence Test ABUTH, percentage damage to the plant (five-point scale) [4] | Post-emergence Test SETFA, percentage damage to the plant (five-point scale) (Setaria faberi (SETFA) [6])
4 (4=61-80%): percentage damage to the plant, SETFA (Setaria faberi (SETFA) [1])

From patent US12660819B2, “Herbicidal derivatives” (SYNGENTA CROP PROTECTION AG, priority 2020, dated 2026)
